“Also recorded” adds a separate entry of the source.
Assays:
[1] = molecular target: RgSBP (RUMGNA_02698, solute binding protein); experiment: Isothermal titration calorimetry (ITC) of RgSBP binding; set-up: species or system R. gnavus ATCC 29149; details: 50 mM Tris-HCl pH 7.5; single-binding site model; triplicate
Procedure: Isothermal titration calorimetry (ITC) experiments were performed using the PEAQ-ITC system (Malvern, Malvern, UK) with a cell volume of 200 μl. Prior to titration, protein samples were exhaustively dialysed into 50 mM Tris-HCl pH 7.5. The ligand was dissolved in the dialysis buffer. The cell protein concentration was 100 μM and the syringe ligand concentration was 2 mM. Controls with titrant (sugar) injected into the buffer only were subtracted from the data. The analysis was performed using the Malvern software, using a single-binding site model. Experiments were carried out in triplicate.

[2] = molecular target: T1, E. coli sialic acid aldolase (EcNanA) (Escherichia coli, UniProt P0A6L4); experiment: Sialic acid aldolase activity assay coupled to lactate dehydrogenase, EcNanA; type: biochemical; details: 10 mM sialic acid, 37° C., pH 7.0, A340 nm
T1 construct: purchased Carbosynth, UK CAS: 9027-60-5 (catalogue number not given)
T1 sequence (P0A6L4 whole entry): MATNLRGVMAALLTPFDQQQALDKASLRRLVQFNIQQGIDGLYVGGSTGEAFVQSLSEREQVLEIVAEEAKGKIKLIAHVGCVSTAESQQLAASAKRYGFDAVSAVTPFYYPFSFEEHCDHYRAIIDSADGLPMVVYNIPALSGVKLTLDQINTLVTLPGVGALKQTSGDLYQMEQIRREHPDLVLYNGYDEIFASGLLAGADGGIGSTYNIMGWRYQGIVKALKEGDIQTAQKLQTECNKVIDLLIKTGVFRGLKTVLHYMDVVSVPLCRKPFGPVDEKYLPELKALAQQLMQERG
Procedure: Aldolase cleavage was measured by monitoring the decrease in absorbance at 340 nm (A340 nm) as NADH is converted to NAD by lactate dehydrogenase in a coupled reaction where pyruvate is released from sialic acid by the aldolase. Reactions were performed in a 100 μl volume with final concentrations of 150 μM NADH (Sigma, St Louis, USA), 0.5 U LDH (Sigma, St Louis, USA), 10 mM sialic acid (Neu5Ac or 2,7-anhydro-Neu5Ac) and 1.5 μg purified RgNanA or EcNanA (E. coli aldolase CAS: 9027-60-5, Carbosynth, UK) in 50 mM Na-phosphate buffer (pH 7.0). The reactions were performed at 37° C. and monitored using FLUOstar OPTIMA (BMG LABTECH). For kinetics experiments, the sialic acid concentration was varied at 20, 10, 5, 4, 2, 1, 0.4, 0.2, 0.1 mM and the initial rate of reaction determined for each concentration in triplicate before analysis was performed by fitting the data to a Michaelis-Menten using Graph Pad Prism (V 5.03). […]
The first step of sialic acid metabolism is the conversion of sialic acid to ManNAc and pyruvate catalysed by a sialic acid aldolase (NanA). […] The substrate specificity of RgNanA was determined using a coupled activity assay where pyruvate released during the conversion of sialic acid to ManNAc is converted to lactate by a lactate dehydrogenase and the subsequent loss of absorbance at 340 nm measured as NADH is converted to NAD^+. […]

| SMILES | Kd [1] | aldolase activity against substrate [2] | Kd (ITC) [1] |
| --- | --- | --- | --- |
| CC(=O)N[C@H]1C2OC(C(=O)O)(C[C@@H]1O)O[C@@H]2[C@H](O)CO (stereo partly shown) [2,7-anhydro-Neu5Ac] | 2420 ± 270 nM | neither enzyme showed activity |  |
| CC(=O)N[C@H]1[C@H]([C@H](O)[C@H](O)CO)OC(O)(C(=O)O)C[C@@H]1O (stereo partly shown) [Neu5Ac, N-acetylneuraminic acid] |  | showed activity | No binding was observed; also recorded: does not bind |

— patent US20210254138A1, “SIALIC ACID TRANSPORTER PROTEINS AS BIOMARKERS AND DRUG TARGETS” (Quadram Institute Bioscience, priority 2018, published 2021)
